The test system of experiment [1] is Candida albicans. Nature of the experiment: Antifungal activity against fluconazole-sensitive Candida albicans ATCC 10231 after 48 hr by broth dilution method. The conditions noted are these: ATCC 10231, 48 h. Format: functional. On the technique in general: Dilution methods test growth across graded concentrations, often in twofold steps.
The subject of experiment [2] is Candida albicans. Nature of the experiment: Antifungal activity against fluconazole-resistant Candida albicans NCIM 3446 after 48 hr by broth dilution method. Format: functional. The following applies: NCIM 3446, 48 h.

The source of these data is ChEMBL document CHEMBL3046370, “Synthesis and biological evaluation of , -unsaturated ketone as potential antifungal agents” (2009).

Values after ≈ are worked out from the molar mass of the structure shown.

Usually MIC stands for the smallest concentration in the dilution series that meets the test's criterion for growth inhibition. Read a low MIC as a more susceptible organism. With `CSc1ccc(/C=C/C(=O)c2ccc(Cl)cc2)cc1`, the values for the MIC against Candida albicans [1] and against Candida albicans [2] were 10 µg/mL (≈ 34.6 µM) and 20 µg/mL (≈ 69.3 µM), respectively.

`CSc1ccc(/C=C/C(=O)c2ccc([N+](=O)[O-])cc2)cc1`: the minimal inhibitory concentration (MIC) turned out to be 50 µg/mL (≈ 167 µM) against Candida albicans [1] and 100 µg/mL (≈ 334 µM) in the experiment with Candida albicans [2].

In the case of `O=C(/C=C/c1ccc(-c2ccccc2)cc1)c1cccs1`, the minimum inhibitory concentration (MIC) stood at 100 µg/mL (≈ 344 µM) against Candida albicans [1] and 250 µg/mL (≈ 861 µM) in the experiment with Candida albicans [2].

Regarding `COc1ccc(C(=O)/C=C/c2ccc(OC)c(OC)c2)cc1`, the minimum inhibitory concentration (MIC) against Candida albicans [1] is 20 µg/mL (≈ 67 µM); in the experiment on Candida albicans [2], 10 µg/mL (≈ 33.5 µM).

Regarding `CSc1ccc(/C=C/C(=O)c2ccc(-c3ccccc3)cc2)cc1`, the minimal inhibitory concentration (MIC) was determined as 100 µg/mL (≈ 303 µM) in the experiment on Candida albicans [1] and 250 µg/mL (≈ 757 µM) in the experiment on Candida albicans [2].

Turning to `CSc1ccc(/C=C/C(=O)c2ccc(Cl)cc2Cl)cc1`, the MIC with Candida albicans [1] was determined as 50 µg/mL (≈ 155 µM); against Candida albicans [2] it was 200 µg/mL (≈ 619 µM).

With `COc1ccc(/C=C/C(=O)c2ccc(Br)s2)cc1OC`, the MIC came out at 50 µg/mL (≈ 142 µM) with Candida albicans [1] and 100 µg/mL (≈ 283 µM) in the experiment on Candida albicans [2].

`CSc1ccc(/C=C/C(=O)c2cccs2)cc1`: the MIC in the experiment on Candida albicans [1] and with Candida albicans [2] was 5 µg/mL (≈ 19.2 µM) each time.

Turning to `CSc1ccc(/C=C/C(=O)c2ccc(Br)cc2)cc1`, the minimal inhibitory concentration (MIC) stood at 40 µg/mL (≈ 120 µM) in the experiment with Candida albicans [1] and 100 µg/mL (≈ 300 µM) against Candida albicans [2].

Turning to `CSc1ccc(/C=C/C(=O)c2ccccc2O)cc1`, the MIC with Candida albicans [1] and in the experiment with Candida albicans [2] was 20 µg/mL (≈ 74 µM) each time.

On to `CSc1ccc(/C=C/C(=O)c2cccc(O)c2)cc1`, for which the values for the minimum inhibitory concentration (MIC) in the experiment with Candida albicans [1] and against Candida albicans [2] were 20 µg/mL (≈ 74 µM) and 40 µg/mL (≈ 148 µM), respectively.

With `OC(Cn1cncn1)(Cn1cncn1)c1ccc(F)cc1F` [FLUCONAZOLE], the values for the MIC in the experiment on Candida albicans [1] and in the experiment with Candida albicans [2] were 20 µg/mL (≈ 65.3 µM) and 100 µg/mL (≈ 327 µM), respectively.

With `CSc1ccc(/C=C/C(=O)c2ccc(F)cc2)cc1`, the MIC with Candida albicans [1] worked out at 5 µg/mL (≈ 18.4 µM); in the experiment on Candida albicans [2], 8 µg/mL (≈ 29.4 µM).

For `O=C(/C=C/c1ccc(-c2ccccc2)cc1)c1ccc(Br)s1`, the minimum inhibitory concentration (MIC) amounted to 100 µg/mL (≈ 271 µM) with Candida albicans [1] and 250 µg/mL (≈ 677 µM) against Candida albicans [2].

In the case of `COc1ccc(C(=O)/C=C/c2ccc(SC)cc2)cc1`, the minimum inhibitory concentration (MIC) is 10 µg/mL (≈ 35.2 µM) against Candida albicans [1] and 20 µg/mL (≈ 70.3 µM) against Candida albicans [2].

With `COc1ccc(/C=C/C(=O)c2cccs2)cc1`, the MIC with Candida albicans [1] and in the experiment with Candida albicans [2] was 20 µg/mL (≈ 81.9 µM) in each case.

With `COc1ccc(/C=C/C(=O)c2ccc(Br)s2)cc1`, the minimal inhibitory concentration (MIC) in the experiment on Candida albicans [1] was 50 µg/mL (≈ 155 µM); in the experiment with Candida albicans [2] it was 100 µg/mL (≈ 309 µM).

In the case of `CSc1ccc(/C=C/C(=O)c2ccc(Br)s2)cc1`, the MIC in the experiment with Candida albicans [1] was 40 µg/mL (≈ 118 µM); with Candida albicans [2] it was 50 µg/mL (≈ 147 µM).

Take `CSc1ccc(/C=C/C(=O)c2ccccc2)cc1`: the minimum inhibitory concentration (MIC) against Candida albicans [1] was determined as 20 µg/mL (≈ 78.6 µM); with Candida albicans [2] it was 40 µg/mL (≈ 157 µM).

Turning to `CSc1ccc(/C=C/C(=O)c2ccc(O)cc2)cc1`, the minimum inhibitory concentration (MIC) against Candida albicans [1] was 20 µg/mL (≈ 74 µM); with Candida albicans [2] it was 40 µg/mL (≈ 148 µM).

`COc1ccc(/C=C/C(=O)c2cccs2)cc1OC`: the minimum inhibitory concentration (MIC) in the experiment with Candida albicans [1] is 10 µg/mL (≈ 36.5 µM); against Candida albicans [2], 20 µg/mL (≈ 72.9 µM).
